Columns and labels:
hMAO A = biological target: T1, hMAO A (Homo sapiens, UniProt P21397); assay: biochemical; details: for inhibition at 10 µM: read-out: % inhibition at 10 μM hMAO A
T1 construct: purchased Sigma Aldrich
T1 sequence (P21397 1-527): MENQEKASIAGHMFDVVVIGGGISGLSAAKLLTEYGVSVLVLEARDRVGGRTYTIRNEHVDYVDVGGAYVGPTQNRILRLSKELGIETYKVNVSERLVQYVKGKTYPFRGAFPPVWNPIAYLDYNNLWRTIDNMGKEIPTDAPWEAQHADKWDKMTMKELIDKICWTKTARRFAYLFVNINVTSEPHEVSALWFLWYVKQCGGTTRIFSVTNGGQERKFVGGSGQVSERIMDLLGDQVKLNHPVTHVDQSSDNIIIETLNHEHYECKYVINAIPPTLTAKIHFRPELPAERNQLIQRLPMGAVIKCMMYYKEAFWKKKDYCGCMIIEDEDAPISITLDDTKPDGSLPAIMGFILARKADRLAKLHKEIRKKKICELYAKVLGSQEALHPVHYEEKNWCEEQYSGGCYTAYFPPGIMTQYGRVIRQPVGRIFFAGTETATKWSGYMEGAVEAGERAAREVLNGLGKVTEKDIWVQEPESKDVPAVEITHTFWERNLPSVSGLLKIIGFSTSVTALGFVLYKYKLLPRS
From the text: (§1) Readings were made with Infinite M1000 Pro plate reader (Tecan, Cernusco s.N., Italy) and statistical regressions with Prism software (GraphPad Prism version 5.00 for Windows, GraphPad Software, San Diego, CA, USA).

hAChE = biological target: T2, hAChE (Homo sapiens, UniProt P22303); assay: biochemical; details: for inhibition at 10 µM: read-out: % inhibition at 10 μM hAChE
T2 construct: purchased Sigma Aldrich
T2 sequence (P22303 32-614): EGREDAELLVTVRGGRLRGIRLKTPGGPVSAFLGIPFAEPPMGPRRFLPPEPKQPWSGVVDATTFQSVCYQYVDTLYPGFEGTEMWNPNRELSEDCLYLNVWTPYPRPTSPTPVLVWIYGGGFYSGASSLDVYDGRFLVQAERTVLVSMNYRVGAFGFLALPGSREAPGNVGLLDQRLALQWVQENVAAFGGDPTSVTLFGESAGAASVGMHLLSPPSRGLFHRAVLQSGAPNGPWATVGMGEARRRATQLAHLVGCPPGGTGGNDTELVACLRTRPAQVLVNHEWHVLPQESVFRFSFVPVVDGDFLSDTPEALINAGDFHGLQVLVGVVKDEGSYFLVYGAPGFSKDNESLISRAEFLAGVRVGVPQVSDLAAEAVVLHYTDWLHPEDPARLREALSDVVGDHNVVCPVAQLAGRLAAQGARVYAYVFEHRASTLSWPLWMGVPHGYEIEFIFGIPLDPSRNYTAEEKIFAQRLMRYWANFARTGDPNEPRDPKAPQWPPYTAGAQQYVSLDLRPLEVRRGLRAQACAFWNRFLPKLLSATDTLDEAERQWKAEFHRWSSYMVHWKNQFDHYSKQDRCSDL
From the text: as §1

[1] = RP-HPLC lipophilicity index log k’; type: physicochemical; details: MeOH/phosphate buffer pH 7.4; methanol/PBS 60:40 v/v
From the text: To investigate a possible correlation between MAO inhibitory potency and lipophilicity,[7] we calculated log P with three different programs (ChemDraw 15.0; ALOG PS 2.1; ChemSketch 2017, see Table S1 in Supporting Information) and compared the calculated values with experimental lipophilicity indexes as assessed by reversed‐phase (RP) HPLC in isocratic conditions for the majority of compounds. The log of capacity factors (log k’) measured by RP‐HPLC using a mixture of methanol/PBS (60 : 40, v/v) as the mobile phase are reported in Tables 1 and 2, along with Clog P values calculated with ChemDraw. These calculated lipophilicity descriptors correlated with the experimental log k’ values (n=13, r ^2=0.901) better than the other log Ps calculated by ALOG PS and ChemSketch computational tools (r ^2 equal 0.705 and 0.568, respectively). As shown by the scatter plots in Figure 4 and Figure S1 in Supporting Information, there is no evident correlation trend between MAO A/B inhibition data and lipophilicity calculated by the expert system implemented in ChemDraw for compounds achieving finite IC50 values.
Log k’ values (k’=(tr‐t0)/t0) and purity determinations were carried out using a Phenomenex Gemini C18 4.6×150 mm, with 3 μm size particles, built on a Waters double pump HPLC system in isocratic conditions. Injection volumes were 10 μL, flow rate was 0.5 mL/min, and detection was performed with UV (λ=254 and 370 nm). Samples were prepared by dissolving 0.1 mg/mL of the solute in 10 % v/v DMSO and 90 % v/v methanol. Retention times (tr) were measured at least from three separate injections, and dead time (t0) was the retention time of deuterated methanol. The mobile phase was filtered through a Supelco Nylon‐66 membrane 0.45 μm (Merck Life Science Srl, Milan, Italy) before use. For each reference compound, the average tr of three consecutive injections of 10 μL of sample was used to calculate the log k’ values. The eluent consisted of five different mixtures of methanol and PBS buffer 10 mM at pH 7.4, with methanol/buffer ratios ranging from 80 : 20 to 60 : 40 v/v.

hMAO B = biological target: T3, hMAO B (Homo sapiens, UniProt P27338); assay: biochemical; type: biochemical; details: for inhibition at 10 µM: read-out: % inhibition at 10 μM hMAO B
T3 construct: purchased Sigma Aldrich
T3 sequence (P27338 1-520): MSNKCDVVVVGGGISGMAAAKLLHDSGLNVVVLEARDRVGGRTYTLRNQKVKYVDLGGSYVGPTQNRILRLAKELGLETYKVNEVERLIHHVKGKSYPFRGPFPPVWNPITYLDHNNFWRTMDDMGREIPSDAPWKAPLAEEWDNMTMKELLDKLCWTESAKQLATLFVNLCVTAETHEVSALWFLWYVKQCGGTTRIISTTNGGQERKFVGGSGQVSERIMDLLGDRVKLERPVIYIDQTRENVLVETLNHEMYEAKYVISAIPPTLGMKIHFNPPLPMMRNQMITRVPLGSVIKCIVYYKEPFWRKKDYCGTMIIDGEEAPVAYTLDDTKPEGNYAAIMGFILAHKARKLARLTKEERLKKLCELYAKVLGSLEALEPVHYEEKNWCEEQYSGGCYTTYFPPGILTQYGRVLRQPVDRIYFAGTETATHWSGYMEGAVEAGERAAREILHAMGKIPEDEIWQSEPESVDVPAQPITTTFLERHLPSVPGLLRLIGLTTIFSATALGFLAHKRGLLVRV

[2] = Hydrolytic stability in buffered solution (PBS pH 7.4, 37 °C); type: physicochemical; details: 20 μM in 10 mM PBS pH 7.4, 37 °C, 6 h incubation
Method: The hydrolytic stability of some representative imino/hydrazone/hydrazide derivatives was determined in buffered aqueous media. […]. […]. The hydrolytic degradation of 9 in its starting reagents was confirmed by the comparison of the chromatograms of 9 and 2‐chloro‐4‐hydroxyaniline, obtained in the same chromatographic conditions (Figure 6B).
Stability studies in buffered solution were performed following an already described procedure,[23] on a Phenomenex C18 column (150×4.6 mm i.d., 3 μm particle size; Phenomenex, Castel Maggiore, Italy) using a mobile phase consisting of a mixture of methanol‐water (75 : 25 v/v, with aqueous formic acid 0.1 %). The used flow rate was 0.500 mL/min while the injection volume was 20 μL. Wavelength of UV‐Vis detector was adjusted at 254 nm. The chemical stability was evaluated in a phosphate buffer solution pH 7.4 (10 mM HPO4 ^2−/H2PO4 ^−; 100 mM NaCl) at 37 °C. Five different concentrations from 0.5 μM to 20 μM were studied in a 2 h time range (data not shown). Each concentration (0.5, 1, 5, 10 and 20 μM) was tested in triplicate starting from 3 different stocks solution (1 mM) prepared separately. The time range was extended to 6 h only for the samples at 20 μM concentration (Figure 6a).

SMILES | inhibition at 10 µM (hMAO A) [%] | inhibition at 10 µM (hAChE) [%] | log k’ (logarithm of capacity factor, RP-HPLC) [1] | IC50 (hMAO B) [µM] | IC50 (hAChE) [µM] | inhibition at 10 µM (hMAO B) [%] | IC50 (hMAO A) [µM] | hydrolytic stability [2] | % inhibition at 10 μM hMAO B (hMAO B; 10 μM)
O=C(NN=Cc1ccc(-c2ccc([N+](=O)[O-])cc2)o1)c1cccs1 [Compound 1, N ′‐((5‐(4‐nitrophenyl)furan‐2‐yl)methylene)thiophene‐2‐carbohydrazide] | 33 | 40 | 0.947 | 3.67 ± 0.92 |  |  |  |  | 
O=C(N/N=C/c1ccco1)c1cccs1 [Compound 15] | 16 |  | −0.010 |  | 7.18 ± 0.07 | 13 |  |  | 
COc1ccc(N/N=C/c2ccc(-c3ccc(C#N)cc3)o2)cc1 [Compound 10] | 47 |  |  |  |  | 29 |  |  | 
N#Cc1ccc(-c2ccc(C=NNC(=O)Cc3ccccc3)o2)cc1 [Compound 8, N ′‐((5‐(4‐cyanophenyl)furan‐2‐yl)methylene)‐2‐phenyl‐acetohydrazide] |  | 16 | 0.803 | 3.61 ± 0.04 |  |  | 5.51 ± 0.54 |  | 
N#Cc1ccc(-c2ccc(/C=N/Nc3ccc(S(N)(=O)=O)cc3)o2)cc1 [Compound 12] |  |  | 0.466 |  | 1.67 ± 0.19 | 28 | 10 ± 1.9 |  | 
CC(=O)NN=Cc1ccc(-c2ccc(C#N)cc2)o1 [Compound 6, N ′‐((5‐(4‐cyanophenyl)furan‐2‐yl)methylene)acetohydrazide] |  | 38 | 0.236 | 2.65 ± 0.11 |  |  | 4.25 ± 0.45 |  | 
CN1CCN(N=Cc2ccc(-c3ccc([N+](=O)[O-])cc3)o2)CC1 [Compound 3, N ‐(4‐methylpiperazin‐1‐yl)‐1‐(5‐(4‐nitrophenyl)furan‐2‐yl)methanimine] |  | 44 | 0.752 | 3.15 ± 0.03 |  |  | 5.61 ± 1.11 | substantial stability | 
N#Cc1ccc(-c2ccc(C=NNC(=O)c3cccs3)o2)cc1 [Compound 4, N ′‐((5‐(4‐cyanophenyl)furan‐2‐yl)methylene)thiophene‐2‐carbohydrazide] |  | 51 |  | 2.63 ± 0.42 |  |  | 1.46 ± 0.21 | substantial stability | 
COc1cc(C=NNC(=O)c2cccs2)ccc1-c1ccc(C#N)cc1 [Compound 13, N ′‐[(4′‐cyano‐2‐methoxy[1,1′‐biphenyl]‐4‐yl)methylidene]thiophene‐2‐carbohydrazide] | 29 | 35 | 0.549 | 2.32 ± 0.43 |  |  |  |  | 
NS(=O)(=O)c1ccc(NN=Cc2ccco2)cc1 [Compound 18, 4‐(‐2‐((furan‐2‐yl)methylidene)hydrazinyl)benzene‐1‐sulfonamide] | 25 | 27 |  |  |  | 21 |  |  | 
O=C1CN(/N=C/c2ccco2)C(=O)N1 [Compound 14] | 11 |  | −1.018 |  | 9.06 ± 0.45 |  |  |  | no inhibition
O=C(Cc1ccccc1)NN=Cc1ccco1 [Compound 17, N ′‐((furan‐2‐yl)methylidene)‐2‐phenylacetohydrazide] | 22 | 52 |  |  |  | 22 |  |  | 
N#Cc1ccc(-c2ccc(/C=N/N3CC(=O)NC3=O)o2)cc1 [Compound 7] | 40 | 28 |  |  |  | 50 |  |  | 
COc1cccc(/C=N/NC(=O)c2ccncc2)c1 [Compound 19] | 19 |  | 0.129 | 12.2 ± 1.5 | 11.2 ± 1.6 |  |  |  | 
COc1cccc(C=NNc2ccc(S(N)(=O)=O)cc2)c1 [Compound 20, 4‐(2‐((3‐methoxyphenyl)methylidene)hydrazinyl)benzene‐1‐sulfonamide] | 42 |  | 0.307 | 0.81 ± 0.04 | 10.2 ± 1.6 |  |  |  | 
N#Cc1ccc(-c2ccc(/C=N/NC(=O)c3ccncc3)o2)cc1 [Compound 5, N ′‐((5‐(4‐cyanophenyl)furan‐yl)methylene)isonicotinohydrazide] |  | 27 | 0.312 | 12.6 ± 0.9 |  |  | 6.62 ± 0.71 |  | 
COc1cc(C=NN2CC(=O)NC2=O)cc(OC)c1OC [Compound 21, 1‐(((3,4,5‐trimethoxyphenyl)methylidene)amino)imidazolidine‐2,4‐dione] | 8 | 28 |  |  |  | 18 |  |  | 
CN1CCN(N=Cc2ccco2)CC1 [Compound 16, 1‐(Furan‐2‐yl)‐N‐(4‐methylpiperazin‐1‐yl)methanimine] | 18 | 21 |  |  |  | 13 |  |  | 
CS(=O)(=O)c1ccc(NN=Cc2ccc(-c3ccc(C#N)cc3)o2)cc1 [Compound 11, 4‐(5‐((2‐(4‐(methylsulfonyl)phenyl)hydrazono)methyl)furan‐2‐yl)benzonitrile] | 11 | 39 |  |  |  | 28 |  |  | 
O=C(N/N=C/c1ccc(-c2ccc([N+](=O)[O-])cc2)o1)c1ccncc1 [Compound 2] |  | 30 | 0.522 | 3.56 ± 0.36 |  |  | 7.89 ± 1.1 |  | 

— PMC8518391, “Synthesis and Biological Evaluation of Dantrolene‐Like Hydrazide and Hydrazone Analogues as Multitarget Agents for Neurodegenerative Diseases” (Chemmedchem, 2021)
